Measurements: paper PMC11809415 (The Journal of Cell Biology, 2025)

Experiments:
F-actin [1] = assay: Actin bundling assay using low-speed centrifugation (10,000 g); assay type: biochemical, rabbit skeletal muscle α-actin; conditions: for F-actin in the pellet: 10 μM actin filaments, 5 min RT, 10,000 g
Method: (§1) Rabbit skeletal muscle α-actin was purified from muscle acetone powder (Pel-Freez Biologicals) as described in [Merino et al. (2018)] and stored in 50 μl aliquots at −70°C.
8 μl of actin filaments at 10 μM were mixed with peptides at the specified concentration, incubated for 5 min at room temperature, and spun down at 10,000 g for 10 min at 4°C. Aliquots of the supernatant and resuspended pellet fractions were separated on SDS-polyacrylamide gels with 2,2,2-trichloroethanol ([Ladner-Keay et al., 2018]) and visualized with ultraviolet light.

actin filaments = conditions: ref Belyy et al., 2020, Kumari et al.; cited from earlier work
Text: (§2) To minimize steric clashes of large probes, small fluorophore-labeled peptides have been developed. The most commonly used is Lifeact, a 17-amino acid peptide derived from the N-terminus of the Saccharomyces cerevisiae actin-binding protein 140 (Abp140).

[2] = tested on: actin-dependent morphogenesis; conditions: certain experimental systems: yeast, Drosophila, C. elegans, zebrafish, mammalian cells; ref Courtemanche et al., 2016; Spracklen et al., 2014; Ono, 2024; Xu and Du, 2021; Flores et al., 2019; cited from earlier work
Text: as §2

[3] = tested on: actin (ADP-ribosylation by TcART, Photorhabdus luminescens); assay: ADP-ribosylation of actin by TcART in presence of actin-binding peptides; assay type: biochemical, rabbit skeletal muscle α-actin; conditions: for ADP-ribosylation level: relative to no peptide = 1, […] actin, 314 pM TcART, 10 min 37°C
Method: as §1
TcART, the ADP-ribosyltransferase from P. luminescens Tc toxin, was purified from E. coli BL21-CodonPlus(DE3)-RIPL harboring the plasmid pB656 as described previously ([Belyy et al., 2022]).
A total of 8-μl mixtures of 2 μg (4.8 μM final concentration) actin and actin-binding peptides at specified concentrations were preincubated for 5 min at room temperature in the buffer containing 1 mM NAD, 20 mM Tris pH 8, 150 mM NaCl, and 1 mM MgCl2. The ADP ribosylation reaction was initiated by the addition of 0.2 ng (314 pM) of TcART to the mixture. After 10 min of incubation at 37°C, the reaction was stopped by adding Laemmli sample buffer and heating the sample at 95°C for 5 min. The components of the mixture were separated by SDS-PAGE, blotted onto a polyvinylidene difluoride (PVDF) membrane using a Trans-Blot Turbo Transfer System (Bio-Rad), and visualized using a combination of the His-tagged ADP-ribose binding protein at the concentration of 0.01 mg/ml and HisProbe-HRP conjugate. The level of actin ADP-ribosylation was quantified by densitometry using ImageJ.

primary neurons = conditions: ref Patel et al., 2017; cited from earlier work
Text: (§3) However, in Xenopus XTC cells, expr ...

cells = conditions: ref Vosatka et al., 2022; cited from earlier work
Text: as §3

Xenopus XTC cells = conditions: ref Belin et al., 2014; cited from earlier work
Text: as §3

Drosophila = conditions: ref Spracklen et al., 2014; cited from earlier work
Text: as §3

F-actin [4] = assay: Cryo-EM of peptide mixed with F-actin; assay type: binding, rabbit skeletal muscle α-actin
Method: as §1
Actin filaments were prepared as for cosedimentation assays. Shortly before plunging, F-actin was diluted to 6 µM with F-buffer. […] 3 μl of sample was applied onto a freshly glow-discharged copper R2/1 300 mesh grid (Quantifoil), blotted for 8 s on both sides with blotting force −15, and plunge-frozen in liquid ethane using the Vitrobot Mark IV system (Thermo Fisher Scientific) at 13°C and 100% humidity.
The datasets were collected using a Talos Arctica transmission electron microscope (Thermo Fisher Scientific) equipped with an XFEG at 200 kV using the automated data-collection software EPU version 2.7 (Thermo Fisher Scientific). Two images per hole with a defocus range of −0.5 to −2.5 µm were collected with a K3 detector (Gatan) operated in super-resolution mode. […] After motion correction was performed in Relion (RRID:SCR_016274) version 3.1, the micrographs were imported into Cryosparc for patch CTF estimation. […]
Before deposition, the structures were refined in real space in Phenix (RRID:SCR_014224) ([Liebschner et al., 2019]) with secondary structure and reference model restraints. The statistics presented in Table 1 were calculated by MolProbity (RRID:SCR_014226) ([Williams et al., 2018]).

## Lifeact: 17-amino acid peptide derived from the N-terminus of Saccharomyces cerevisiae actin-binding protein 140 (Abp140) [reference compound]
F-actin [1]; peptide 10 µM, Repeat 1
  F-actin in the pellet: 0,07218
F-actin [1]; peptide 10 µM, Repeat 2
  F-actin in the pellet: 0,09382
F-actin [1]; peptide 10 µM, Repeat 3
  F-actin in the pellet: 0,137443
F-actin [1]; peptide 100 µM, Repeat 1
  F-actin in the pellet: 0,1046
F-actin [1]; peptide 100 µM, Repeat 2
  F-actin in the pellet: 0,117135
F-actin [1]; peptide 100 µM, Repeat 3
  F-actin in the pellet: 0,14654
F-actin [1]; peptide 1000 µM, Repeat 1
  F-actin in the pellet: 0,339777
F-actin [1]; peptide 1000 µM, Repeat 2
  F-actin in the pellet: 0,164721
F-actin [1]; peptide 1000 µM, Repeat 3
  F-actin in the pellet: 0,309232
Actin filaments
  competition for binding site on actin filaments: competes with cofilin, myosin, and other actin-binding factors for the same binding site on actin filaments
[2]
  effect on actin-dependent morphogenesis: dramatically altered actin-dependent morphogenesis
[3]; peptide 1 µM, Repeat 1
  ADP-ribosylation level: 0,978733
[3]; peptide 1 µM, Repeat 2
  ADP-ribosylation level: 0,811616
[3]; peptide 1 µM, Repeat 3
  ADP-ribosylation level: 1,268379
[3]; peptide 3 µM, Repeat 1
  ADP-ribosylation level: 0,825802
[3]; peptide 3 µM, Repeat 2
  ADP-ribosylation level: 0,671345
[3]; peptide 3 µM, Repeat 3
  ADP-ribosylation level: 1,323177
[3]; peptide 10 µM, Repeat 1
  ADP-ribosylation level: 0,671724
[3]; peptide 10 µM, Repeat 2
  ADP-ribosylation level: 1,132312
[3]; peptide 10 µM, Repeat 3
  ADP-ribosylation level: 0,970817
[3]; peptide 30 µM, Repeat 1
  ADP-ribosylation level: 0,313245
[3]; peptide 30 µM, Repeat 2
  ADP-ribosylation level: 0,438167
[3]; peptide 30 µM, Repeat 3
  ADP-ribosylation level: 0,331448
[3]; peptide 100 µM, Repeat 1
  ADP-ribosylation level: 0
[3]; peptide 100 µM, Repeat 2
  ADP-ribosylation level: 0,032044
[3]; peptide 100 µM, Repeat 3
  ADP-ribosylation level: 0,093063
[3]; peptides up to 100 µM
  effect on TcART modification of F-actin (in words): inhibited TcART activity in a similar dose-dependent manner

## MARPRGAGPCSPGLERAPRRSVGELRLLFEARCAAVAAAAAAG [F-tractin, 43 amino acid peptide, residues 10–52 of rat inositol 1,4,5-trisphosphate 3-kinase A; EGFP fusion in cell assays]
F-actin [1]; in vitro, up to 100 µM, low-speed centrifugation and cryo-EM
  actin bundling (in words): strong bundling effect on F-actin
F-actin [1]; peptide 1 µM, Repeat 1
  F-actin in the pellet: 0,052087
F-actin [1]; peptide 1 µM, Repeat 2
  F-actin in the pellet: 0,032888
F-actin [1]; peptide 1 µM, Repeat 3
  F-actin in the pellet: 0,047528
F-actin [1]; peptide 10 µM, Repeat 1
  F-actin in the pellet: 0,092603
F-actin [1]; peptide 10 µM, Repeat 2
  F-actin in the pellet: 0,600815
F-actin [1]; peptide 10 µM, Repeat 3
  F-actin in the pellet: 0,323365
F-actin [1]; peptide 100 µM, Repeat 1
  F-actin in the pellet: 0,999376
F-actin [1]; peptide 100 µM, Repeat 2
  F-actin in the pellet: 0,989657
F-actin [1]; peptide 100 µM, Repeat 3
  F-actin in the pellet: 0,931572
Primary neurons
  reporting on F-actin organization in primary neurons: without notable effects on cell function
cells
  cell stiffness and cell migration: increase in cell stiffness and reduction in cell migration
Xenopus XTC cells
  effect of expression on actin structures: induced radial actin bundles and longer filopodia
Drosophila
  effect on fertility and actin in Drosophila oogenesis: without causing female sterility or significant actin defects
F-actin [4]; estimated from alignment-free 3D classification, 100 μM peptide
  F-tractin occupancy on F-actin: ~ 50%
F-actin [4]; preformed F-actin incubated with 100 μM peptide
  appearance of actin filaments by cryo-EM: large heterogeneous bundles instead of single actin filaments
